Experimental data reported in article PMC5154250 (Biochemistry, 2016).

How the values were obtained:
[1] = molecular target: T1, PDH (photoreceptor retinol dehydrogenase, isoform C; PDHc) (Drosophila melanogaster, UniProt B7Z062); assay: differential scanning fluorimetry; type: binding
T1 sequence (B7Z062 2-261): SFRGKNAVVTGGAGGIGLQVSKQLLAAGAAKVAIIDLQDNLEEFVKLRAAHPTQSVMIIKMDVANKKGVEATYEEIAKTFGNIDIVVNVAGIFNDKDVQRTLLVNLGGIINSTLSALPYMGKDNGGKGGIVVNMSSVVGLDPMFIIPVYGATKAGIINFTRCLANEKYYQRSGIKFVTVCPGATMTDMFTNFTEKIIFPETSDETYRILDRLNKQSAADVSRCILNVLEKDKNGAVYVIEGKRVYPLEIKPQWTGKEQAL

[2] = molecular target: Drosophila melanogaster photoreceptor retinol dehydrogenase (PDH) isoform C (Drosophila melanogaster); assay: crystal structure

| Kd [1] | stoichiometry N [2] | Molecule |
| --- | --- | --- |
| 170 ± 30 µM |  | NC(=O)c1ccc[n+]([C@@H]2O[C@H](COP(=O)([O-])OP(=O)(O)OC[C@H]3O[C@@H](n4cnc5c(N)ncnc54)[C@H](O)[C@@H]3O)[C@@H](O)[C@H]2O)c1 [NAD^+] |
|  | 2 | Drosophila melanogaster photoreceptor retinol dehydrogenase (PDH) isoform C (enzyme) |
